In patent publication US7217534B2, “Methods of screening apoptosis modulating compounds, compounds identified by said methods and use of said compounds as therapeutic agents” (Institut Pasteur, priority 2002, dated 2007):

Legend:
[1] = test system: IL-4-stimulated cells (TS1αβ murine T cell line); assay: Cholesterol depletion, raft association of Bad and Lck by CTx-FITC confocal microscopy; type: cell-based; conditions: 10 mM, 30 min, 37° C., serum-free medium
Method: A) IL-4-stimulated cells were serum-starved for 30 min and then treated with or without 10 mM M-β-CD for 30 min at 37° C. before incubation with CTx-FITC and anti-Bad or anti-Lck antibodies, followed by Cy3-labeled secondary antibody. Then, cells were analyzed by confocal microscopy. Similar results were obtained in two independent experiments. Single confocal sections show green (FITC) and red (Cy3) fluorescence. B) IL-4-stimulated cells were serum-starved for 30 min and then treated with or without 10 mM M-β-CD for 30 min at 37° C., then washed and transferred to complete medium supplemented with IL-4. At different times, apoptosis was measured. Sub G1 region of the fluorescence scale was used to determine the percentage of cells present in the initial step of apoptosis. Similar results were obtained in two independent experiments. White bars, control cells; grey bars, M-β-CD-treated cells. […]
IL-4-stimulated or -deprived cells were fixed with 1% paraformaidehyde for 5 min on ice, permeabilized and then incubated with CTx-FITC (20 min, 6 μg/ml) and anti-Bad antibody for 1 h in PBS-BSA. […] Finally, and after several washing steps, cells were incubated with methanol at −20° C. for 10 min, mounted wiht Vectashield medium, and analyzed by confocal microscopy. The program used for quantification of samples was Leica TSC NT version 1.5.451 (Leica, Lasertechnik, Heidelberg, Germany). […]

[2] = test system: IL-4-stimulated cells (TS1αβ murine T cell line); assay: Apoptosis by cell cycle analysis (sub-G1 region, propidium iodide flow cytometry); type: cell-based
Method: A) IL-4-stimulated cells were serum-starved for 30 min and then treated with or without 10 mM M-β-CD for 30 min at 37° C. before incubation with CTx-FITC and anti-Bad or anti-Lck antibodies, followed by Cy3-labeled secondary antibody. Then, cells were analyzed by confocal microscopy. Similar results were obtained in two independent experiments. Single confocal sections show green (FITC) and red (Cy3) fluorescence. B) IL-4-stimulated cells were serum-starved for 30 min and then treated with or without 10 mM M-β-CD for 30 min at 37° C., then washed and transferred to complete medium supplemented with IL-4. At different times, apoptosis was measured. Sub G1 region of the fluorescence scale was used to determine the percentage of cells present in the initial step of apoptosis. Similar results were obtained in two independent experiments. White bars, control cells; grey bars, M-β-CD-treated cells.
(§1) TS1αβ is a murine T cell line that can be propagated independently in IL-2, IL-4 or IL-9 Cells were cultured in RPMI-1640 as previously described (Pitton et al., 1993, Cytokine 5, 362–371). Murine rIL-4 or supernatant of a HeLa subline transfected with PKCRIL-4.neo was used as a source of murine IL-4. Fluorescein isothiocyanate (FITC-)-labeled cholera toxin (CTx) B subunit, CTx-Biotin and methyl-β-cyclodextrin (M-β-CD) were obtained from Sigma-Aldrich (St. Louis, Mo.). Cy3- and Cy2-conjugated secondary antibodies were purchased from Molecular Probes (Eugene, Oreg.). Anti-mitochondria serum (mito 2813, pyruvate dehydrogenase) was a gift from Dr A. Serrano (CNB, Madrid, Spain).
A total of 2×10^5 IL-4-stimulated cells treated with or without M-β-CD were washed, resuspended in PBS, permeabilized with 0.1% Nonidet P-40 and stained with 50 μg/ml propidium iodide (PI). At different times, samples were analyzed using a EpicsXL flow cytometer (Coulter, Hialeah, Fla.). Apoptosis was measured as the percentage of cells in the sub-G1 region of the fluorescence scale having an hypodiploid DNA content.
Given that exclusion of Bad from rafts was also observed in apoptotic IL-4-deprived cells (FIG. 3A), it was analyzed whether Bad association to rafts and its integrity was necessary for prevention of apoptosis. For this purpose, IL-4-stimulated cells were treated for 30 min with or without M-β-CD in serum-free medium, then washed, resuspended in IL-4-supplemented complete medium and analyzed for induction of apoptosis at different times (FIG. 4B). […] Eight hours upon treatment, the amount of apoptotic cells detected in treated and non treated cells were similar because addition of serum restores the lipid composition of the membrane.

Bad = assay: Serine phosphorylation of Bad by immunoprecipitation and western blot; type: cell-based, murine; conditions: anti-Bad serine 136, 112 and 155 blots, IL-4-stimulated cells
Source text: A) Cytoplasmic extracts from IL-4-stimulated or -deprived cells were immunoprecipitated with anti-Bad antibody and blotted with anti-Bad serine 136, 112 and 155. As internal control, the blot was developed with anti-Bad. Positive control for serine 112 and 136 phosphorylation, IL-2-stimulated cells; positive control for serine 155 phosphorylation of Bad, Bad-transfected COS cells (C). […] Molecular weight of the corresponding proteins is shown.
as §1, with “Spain). […]” for “Spain).”
Posttranslational modifications of Bad such as phosphorylation, and its role in Bad localization in rafts or mitochondria was further analyzed. […]

methyl-β-cyclodextrin [M-β-CD]
raft formation and association of Lck and Bad with rafts [1]: severe disruption of raft formation and association of Lck and Bad with rafts
time of highest level of apoptosis after treatment ([2]; 30 min treatment in serum-free medium, then IL-4-supplemented complete medium): 5 h
level of apoptosis compared with control non treated cells ([2]; 30 min treatment in serum-free medium, then IL-4-supplemented complete medium, different times): stronger level of apoptosis
amount of apoptotic cells in treated and non treated cells ([2]; eight hours upon treatment, serum added back): similar

B1: IL-4: Murine rIL-4 or supernatant of a HeLa subline transfected with PKCRIL-4.neo, used as source of murine IL-4 (protein, UniProt P07750 21-140, looked up)
Interleukin-4: HIHGCDKNHLREIIGILNEVTGEGTPCTEMDVPNVLTATKNTTESELVCRASKVLRIFYLKHGKTPCLKKNSSVLMELQRLFRAFRCLDSSISCTMNESKSTSLKDFLESLKSIMQMDYS
level of apoptosis in IL-4-stimulated cells ([2]; control IL-4-stimulated cells versus IL-4-deprived cells, 4 h to 24 h): no significant level of apoptosis
serine phosphorylation of Bad (Bad): induces serine 136 phosphorylation of Bad, but not serine 112 and 155
